Experiments:
HeLa cells = experiment: MTS cell proliferation and/or cytotoxicity assay; format: cell-based, Human; settings: Homo sapiens, HeLa, 72 h, concentration at which 50% of antiproliferative cell response is seen; 3 days incubation; read-out: MTS Data Hella
Experimental: Cell culture. Human cervical epithelial cells (HeLa cells) were obtained from American Type Culture Collection (Manassas, Va.). Cells were grown in Eagle's minimum essential medium (MEM, Hyclone, Utah) supplemented with 2 mM Glutamine, 0.1 mM nonessential amino acid, 1 mM Na Pyruvate, 1.5 g/L NaHCO3, 50 mg/L gentamicin, and 10% fetal bovine serum (Hyclone, USA) in a humidified atmosphere of 5% CO2 at 37° C.
MTS assays. Antiproliferative effects of the compounds were tested by the CellTiter 96 AQueous assay (Promega, WI), which is a calorimetric assay for determining the number of viable cells. (See, e.g., Wang, L., et al., Methods Cell Sci (1996) 18:249-255). In one example, cells (4,500 cells/well) were seeded on 96 well flat bottom plates (Corning, N.Y.) in 100 μl of culture medium without any anticancer drug on day 0, and the culture medium was exchanged for that //contained anticancer drugs at various concentrations on day 1. After incubation for 3 days under normal growth conditions (on day 4), the monolayers were washed once in PBS, and the medium was switched to 100 μl of PBS in each of the 96 well plate. After mixing MTS and PMS at the ratio of 20:1, 20 μl of MTS/PMS solution was added to each of the 96 well plate and incubated for 4 hours in a humidified atmosphere of 5% CO2 at 37° C. The absorbance was read at 490 nm using FLUOstar Galaxy 96 well plate reader (BMG Labtechnologies, Germany). μM concentrations (MTS data) reported in Table 1 are concentrations at which 50% of antiproliferative cell response is seen.

[1] = target: c-Myc template DNA (c-myc quadruplex); experiment: Quadruplex binding / stop assay (Taq polymerase arrest, capillary electrophoresis); settings: read-out: Stop Data c-Myc μM; concentration at which 50% of the DNA was arrested (arrested:full-length 1:1)

SMILES | IC50 (HeLa cells) [µM] | IC50 [1] [µM]
CN(C)CCCCNc1c(F)cc2c(=O)c(C(=O)NCCN3CCCC3)cn3c2c1Oc1cc2c(cc1-3)oc1ccccc12 [compound 369] | 3.5 | 0.75
CC(=O)N[C@@H]1CCC(c2c(F)cc3c(=O)c(C(=O)NCCN4CCCC4)cn4c3c2Oc2cc3c(cc2-4)oc2ccccc23)C1 (stereo partly shown) [compound 370] | 3.5 | 0.75
CN(C)/C=N/CCCNC(=O)c1cn2c3c(c(N4CC[C@@H](N)C4)c(F)cc3c1=O)Oc1cc3ccccc3cc1-2 [compound 371] | 3.5 | 0.75
CN1CCCC1CCNC(=O)c1cn2c3c(c(NCCC4CCCN4C)c(F)cc3c1=O)Oc1cc3c(cc1-2)oc1ccccc13 (stereo not shown) [compound 372] | 3.4 | 0.75
O=C(NCCN1CCCC1)c1cn2c3c(c(NCCCN4CCOCC4)c(F)cc3c1=O)Oc1cc3c(cc1-2)-c1ccccc1C3 [compound 373] | 3.3 | 0.75
CC(=O)N[C@@H]1CCN(c2c(F)cc3c(=O)c(C(=O)NCCCCN(C)C)cn4c3c2Oc2cc3c(cc2-4)oc2ccccc23)C1 [compound 374] | 3.3 | 0.75
N[C@@H]1CCN(c2c(F)cc3c(=O)c(C(=O)NCCCN4CCOCC4)cn4c3c2Oc2cc3c(cc2-4)oc2ccccc23)C1 [compound 375] | 2.7 | 0.75
O=C(CCN1CCCC1)N[C@@H]1CCN(c2c(F)cc3c(=O)c(C(=O)NCCN4CCCC4)cn4c3c2Oc2cc3c(cc2-4)oc2ccccc23)C1 [compound 376] | 2.4 | 0.75
Nc1c(F)c(NCCCN2CCOCC2)c2c3c1c(=O)c(C(=O)NCCN1CCCC1)cn3-c1cc3ccccc3cc1O2 [compound 377] | 2.2 | 0.75
CN1CCCC1CCNC(=O)c1cn2c3c(c(NCCc4ccc(O)cc4)c(F)cc3c1=O)Oc1cc3ccccc3cc1-2 (stereo not shown) [compound 378] | 2.1 | 0.75
NC1CCN(c2c(F)cc3c(=O)c(C(=O)NCCc4cnc[nH]4)cn4c3c2Oc2cc3ccccc3cc2-4)C1 (stereo not shown) [compound 379] | 1.9 | 0.75
CN1CCCC1CCNC(=O)c1cn2c3c(c(NCCCN4CCOCC4)c(F)c(N)c3c1=O)Oc1cc3ccccc3cc1-2 (stereo not shown) [compound 380] | 1.8 | 0.75
CN1CCCC1CCNC(=O)c1cn2c3c(c(NCCc4ccc(O)c(O)c4)c(F)cc3c1=O)Oc1cc3ccccc3cc1-2 (stereo not shown) [compound 381] | 1.8 | 0.75
C[C@@H](O)CNc1c(F)cc2c(=O)c(C(=O)NCCC3CCCN3C)cn3c2c1Oc1cc2ccccc2cc1-3 (stereo partly shown) [compound 382] | 1.8 | 0.75
CN1CCN(CCCNC(=O)c2cn3c4c(c(N5CCC(NC(=O)OC(C)(C)C)C5)c(F)cc4c2=O)Oc2cc4c(cc2-3)oc2ccccc24)CC1 (stereo not shown) [compound 383] | 0.37 | 0.75
CC(C)(C)OC(=O)NC1CCN(c2c(F)cc3c(=O)c(C(=O)NCCN4CCCC4)cn4c3c2Oc2cc3c(cc2-4)oc2ccccc23)C1 (stereo not shown) [compound 384] | 0.37 | 0.75
CCN(CC)CCCC(C)NC(=O)c1cn2c3c(c(N4CC5CCCNC5C4)c(F)cc3c1=O)Oc1cc3ccccc3cc1-2 (stereo not shown) [compound 385] | 0.36 | 0.75
N[C@@H]1CCN(c2c(F)cc3c(=O)c(C(=O)NCCCN4CCOCC4)cn4c3c2Oc2cc3ccccc3cc2-4)C1 [compound 386] | 0.34 | 0.75
CC1CCCCN1CCCNC(=O)c1cn2c3c(c(N4CCC(N)C4)c(F)cc3c1=O)Oc1cc3ccccc3cc1-2 (stereo not shown) [compound 387] | 0.33 | 0.75
CN1CCC(Nc2c(F)cc3c(=O)c(C(=O)NCCC4CCCN4C)cn4c3c2Oc2cc3ccccc3cc2-4)CC1 (stereo not shown) [compound 388] | 0.31 | 0.75
CN1CCCC1CCNC(=O)c1cn2c3c(c(N4CCC(NC(=O)OC(C)(C)C)C4)c(F)cc3c1=O)Oc1cc3c(cc1-2)oc1ccccc13 (stereo not shown) [compound 389] | 0.29 | 0.75
N[C@@H]1CCN(c2c(F)cc3c(=O)c(C(=O)NCCN4CCOCC4)cn4c3c2Oc2cc3ccccc3cc2-4)C1 [compound 390] | 0.24 | 0.75
CN1CCCC1CCNC(=O)c1cn2c3c(c(NCC4(O)CCCCC4)c(F)cc3c1=O)Oc1cc3ccccc3cc1-2 (stereo not shown) [compound 391] | 0.24 | 0.75

— patent US7507727B2, “Substituted quinobenzoxazine analogs and methods of using thereof” (Cylene Pharmaceuticals, Inc., priority 2003, dated 2009)
